Assay results from paper PMC8284453 (Antimicrobial Agents and Chemotherapy, 2021).
Where two headings read alike, the source gives them in different places.

Tests used:
SHV-5 = biological target: T1, SHV-5 (Klebsiella pneumoniae, UniProt P0A3M1); assay: biochemical; type: biochemical
T1 construct: made in house; host or cells: E. coli BL21(DE3)/pLysS, plasmid pET-SHV-5 (pET9a)

CMY-2 = biological target: T2, CMY-2 (Klebsiella pneumoniae, UniProt Q48434); assay: IC50 determination against purified β-lactamase; type: biochemical
T2 construct: made in house; host or cells: E. coli BL21(DE3), pET9a

CTX-M-15 [1] = biological target: T3, CTX-M-15 (Escherichia coli, UniProt Q9EXV5); assay: biochemical
[2] = tested on: serine β-lactamases (CTX-M-15, SHV-5, KPC-2, P99AmpC); assay: Kinetic parameters, summary across enzymes; type: biochemical; details: range across the four enzymes
OXA-1 = biological target: T4, OXA-1 (Escherichia coli, UniProt P13661); assay: IC50 determination against purified β-lactamase; type: biochemical; details: substrate nitrocefin; mean from duplicate measurements
T4 construct: made in house; host or cells: E. coli BL21(DE3), pET9a

CTX-M-15 [3] = biological target: T3, CTX-M-15; assay: IC50 determination against purified β-lactamase; type: biochemical; parameters: made in house; host or cells: E. coli BL21(DE3), plasmid pET-CTX-M-15 (pET9a)
Protocol: (§1) An equal volume of enzyme was added (assay concentrations, 0.6 nM P99AmpC, 21 nM CTX-M-15, 3 nM KPC-2, 100 nM SHV-5), and the mixtures were preincubated for 15 min at 37°C. For AmpC, nitrocefin was then added to obtain a final concentration of 100 μM, and the absorbance at a wavelength (λ) of 486 nm (representing hydrolysis of the nitrocefin β-lactam ring) was monitored immediately using a BioTek Powerwave XS2 microplate reader. In similar fashion, using UV-transparent 96-well microtiter plates, hydrolysis of imipenem (100 μM) by KPC-2 was monitored at λ 300 nm, while cefotaxime (100 μM) hydrolysis by CTX-M-15 and SHV-5 was monitored at λ 300 nm. Assays were performed in duplicate, and the percentage inhibition relative to reaction mixtures containing no inhibitor were determined for each concentration of inhibitor.

KPC-2 [4] = biological target: T5, KPC-2 (Klebsiella pneumoniae, UniProt Q9F663); assay: biochemical
KPC-2 [5] = biological target: T5, KPC-2; assay: IC50 determination against purified β-lactamase; type: biochemical; parameters: made in house; host or cells: E. coli BL21(DE3), plasmid pET-KPC-2 (pET9a); details: substrate imipenem; mean from duplicate measurements
Protocol: as §1

[6] = biological target: T6, protein tyrosine kinase Fyn (Homo sapiens, UniProt P06241); assay: DrugMatrixScreen selectivity panel; type: biochemical; details: screening concentration of 100 μM
T6 construct: Eurofins/Panlabs (DrugMatrixScreen, contract assay)
Protocol: (§2) Binding, enzymatic, and uptake assays representing a wide range of cellular and subcellular target classes were performed. […] The in vivo significance of these in vitro activities is not known.
(§3) The selectivity of VNRX-5236 was assessed in the DrugMatrixScreen at Eurofins Discovery Services. This screen encompasses 123 mammalian receptor and enzyme classes (and a single prokaryotic target, a β-lactamase) that can be used to assess the potential off-target activities of development candidates ([34]).

[7] = biological target: T7, protein serine/threonine phosphatase, PPP3CA (calcineurin PP2B) (Homo sapiens, UniProt Q08209); assay: DrugMatrixScreen selectivity panel; type: biochemical; details: screening concentration of 100 μM
T7 construct: Eurofins/Panlabs (DrugMatrixScreen, contract assay)
Protocol: as §2, §3

P99AmpC [8] = biological target: T8, P99AmpC (Enterobacter cloacae, UniProt P05364); assay: Kinetic parameters of reversible inactivation
[9] = tested on: four strains of Gram-positive organisms or nine strains of Gram-negative bacilli; assay: Stand-alone antibacterial activity; type: cell-based; details: all MICs
MRC-5 = assay: Mammalian cell cytotoxicity; type: cell-based; details: dividing cell cultures
Protocol: (§4) Mammalian cell cytotoxicity. Cytotoxicity evaluations were conducted on actively dividing cells to maximize assay sensitivity. Procedurally, 180 μl of cells were seeded in cell-culture-treated 96-well plates (Celltreat, Pepperell, MA) at a density of 2 × 10^4 to 3.5 × 10^4 cells/ml and incubated overnight at 37°C in a humidified, 5% CO2 atmosphere. The next day, compound was diluted in PBS with 6% DMSO in a 0.5 log10 dilution scheme at 10 times the final compound concentration array. […] The cytotoxic agent chlorohexidine was assayed as a positive control at compound concentrations ranging from 0.31 to 100 μg/ml. The final DMSO concentration in all assays was 0.6%.
(§5) After an additional 72 h of incubation (when cells reached 90 to 100% confluence) Cell Titer 96 AQ solution was added at 20 μl per well, and plates were incubated an additional 2 to 4 h at 37°C and 5% CO2. The optical density of the wells was read on a Biotek Cytation 3 plate reader at 490 nm. Background signal (wells receiving Cell Titer reagent but containing no cells) was subtracted from all wells on the plate. […] Experiments were run in triplicate with data from all three trials included in the data analysis.

3T3 = assay: Mammalian cell cytotoxicity; type: cell-based; details: dividing cell cultures
Protocol: as §4, §5

HeLa = assay: Mammalian cell cytotoxicity; type: cell-based; details: dividing cell cultures
Protocol: as §4, §5

P99AmpC [10] = biological target: T8, P99AmpC; assay: IC50 determination against purified β-lactamase; type: biochemical; parameters: P99AmpC was purified directly from the Enterobacter cloacae P99 clinical isolate; made in house; host or cells: Enterobacter cloacae P99 (native producer, induced with sub-MIC imipenem); details: substrate nitrocefin; mean from duplicate measurements
Protocol: as §1

[11] = parameters: method as in earlier work; details: cited from earlier work
[12] = DrugMatrixScreen selectivity panel; details: 10 μM; 129 in vitro assays
Protocol: as §2, §3

[13] = half-life of active site occupancy

## CCC(=O)N[C@H]1Cc2cccc(C(=O)O)c2OB1O [VNRX-5236]
SHV-5
  Ki: 40 nM
SHV-5; off rate, jump dilution
  k−2: 12.7 ± 0.07 10^−4 s^−1
CMY-2
  IC50: 10 nM
CTX-M-15 [1]
  Ki: 10 nM
CTX-M-15 [1]; [13]
  t1/2: 26 ± 0.6 min
CTX-M-15 [1]; off rate, jump dilution
  k−2: 4.5 ± 0.1 10^−4 s^−1
[2]
  Dissociation rates (k-2): 2.5 to 24 10^−4 s^−1
  Ki: 10 to 110 nM
OXA-1
  IC50: 70 nM
CTX-M-15 [3]
  IC50: 20 nM
KPC-2 [4]
  Ki: 110 nM
KPC-2 [4]; [13]
  t1/2: 46 ± 2 min
KPC-2 [4]; off rate, jump dilution
  k−2: 2.5 ± 0.1 10^−4 s^−1
KPC-2 [5]
  IC50: 80 nM
[6]
  inhibition at 100 µM: 77%
[7]
  inhibition at 100 µM: 56%
P99AmpC [8]; [13]
  t1/2: 5 ± 0.1 min
P99AmpC [8]; off rate, jump dilution
  k−2: 24 ± 0.5 10^−4 s^−1
[9]
  MIC: ≥ 128 µg/mL
MRC-5
  noncytotoxic up to the highest concentration tested: > 1 mg/mL
3T3
  noncytotoxic up to the highest concentration tested: > 1 mg/mL
HeLa
  noncytotoxic up to the highest concentration tested: > 1 mg/mL

## NC(=O)[C@@H]1CC[C@@H]2CN1C(=O)N2OS(=O)(=O)O [Avibactam, avibactam]
CMY-2; substrate nitrocefin, mean from duplicate measurements, read-out: IC50
  IC50: 7 nM
P99AmpC [10]
  IC50: 20 nM
OXA-1
  IC50: 40 nM
CTX-M-15 [3]; substrate cefotaxime, mean from duplicate measurements, read-out: IC50
  IC50: 3 nM

## CCC(=O)N[C@H]1Cc2cccc(C(=O)OCOC(=O)C(CC)CC)c2OB1O [VNRX-7145]
[11]; all PK time points
  levels of circulating VNRX-7145: exceedingly low
[11]; rats, dogs, and monkeys
  oral bioavailability: high oral bioavailability
[12]
  off-target findings: no notable off-target findings
[9]
  MIC: ≥ 128 µg/mL
MRC-5
  noncytotoxic up to the highest concentration tested: > 0.128 mg/mL
3T3
  noncytotoxic up to the highest concentration tested: > 0.128 mg/mL
